Reference: ChEMBL document CHEMBL1201862, “PubChem BioAssay data set” (2004)
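Interpolation was linear, between the two tested concentrations surrounding the appropriate level; five concentrations were tested over 48 hours in 96-well plates. Here, GI50 denotes the concentration required for 50% inhibition of growth.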 The source made the active and inactive calls. Cut-off read from the data, not from the text of the source: active = GI50 up to about 1.1 µM and inactive = higher.

Key:
Test in all cases: growth of human tumour cells (NCI), 48 h
NCI/ADR-RES = tested on: NCI/ADR-RES
CAKI-1 = tested on: CAKI-1
HOP-62 = tested on: HOP-62
PC-3 = tested on: PC-3
DU-145 = tested on: DU-145
Hs-578T = tested on: Hs-578T
A498 = tested on: A498
MCF7 = tested on: MCF7
SN12C = tested on: SN12C
LOX IMVI = tested on: LOX IMVI
786-0 = tested on: 786-0
HCC 2998 = tested on: HCC 2998
MDA-N = tested on: MDA-N
BT-549 = tested on: BT-549
NCI-H226 = tested on: NCI-H226
ACHN = tested on: ACHN
HCT-15 = tested on: HCT-15
T47D = tested on: T47D
SF-539 = tested on: SF-539
IGROV-1 = tested on: IGROV-1
SF-268 = tested on: SF-268
OVCAR-3 = tested on: OVCAR-3
OVCAR-4 = tested on: OVCAR-4
NCI-H23 = tested on: NCI-H23
HCT-116 = tested on: HCT-116
NCI-H460 = tested on: NCI-H460
UO-31 = tested on: UO-31
U-251 = tested on: U-251
NCI-H522 = tested on: NCI-H522
SK-MEL-2 = tested on: SK-MEL-2
EKVX = tested on: EKVX
TK-10 = tested on: TK-10
MDA-MB-435 = tested on: MDA-MB-435
SF-295 = tested on: SF-295
CCRF-CEM = tested on: CCRF-CEM
UACC-257 = tested on: UACC-257
HL-60 = tested on: HL-60
SK-MEL-28 = tested on: SK-MEL-28
HOP-92 = tested on: HOP-92
SR = tested on: SR
A549 = tested on: A549
KM12 = tested on: KM12
M14 = tested on: M14
K562 = tested on: K562
OVCAR-8 = tested on: OVCAR-8
UACC-62 = tested on: UACC-62
SK-MEL-5 = tested on: SK-MEL-5
COLO 205 = tested on: COLO 205
RPMI-8226 = tested on: RPMI-8226
MOLT-4 = tested on: MOLT-4
SNB-19 = tested on: SNB-19
MDA-MB-231 = tested on: MDA-MB-231
SK-OV-3 = tested on: SK-OV-3
HT-29 = tested on: HT-29
SW-620 = tested on: SW-620
OVCAR-5 = tested on: OVCAR-5

C=C1C(=O)[C@@]23CC1C(O)[C@@H](OC(C)=O)[C@@H]2C1(C)C(OC(C)=O)C[C@@H](OC(C)=O)C(C)(C)[C@@H]1C[C@H]3OC(C)=O (some centres not stated)
GI50 (NCI/ADR-RES): > 10 µM (inactive)
GI50 (CAKI-1): 6.27 µM (inactive)
GI50 (HOP-62): > 10 µM (inactive)
GI50 (PC-3): > 10 µM (inactive)
GI50 (DU-145): > 10 µM (inactive)
GI50 (Hs-578T): 2.9 µM (inactive)
GI50 (A498): > 10 µM (inactive)
GI50 (MCF7): 2.58 µM (inactive)
GI50 (SN12C): 3.77 µM (inactive)
GI50 (LOX IMVI): 6.35 µM (inactive)
GI50 (786-0): 5.52 µM (inactive)
GI50 (HCC 2998): > 10 µM (inactive)
GI50 (MDA-N): 3.85 µM (inactive)
GI50 (BT-549): 1.47 µM (inactive)
GI50 (NCI-H226): > 10 µM (inactive)
GI50 (ACHN): > 10 µM (inactive)
GI50 (HCT-15): 2.6 µM
GI50 (T47D): 2.12 µM (inactive)

COc1cc(C2SCC(=O)N2c2ccccn2)cc(OC)c1OC (configuration not stated)
GI50 (NCI/ADR-RES): 39.6 µM (inactive)
GI50 (SF-539): 65 µM (inactive)
GI50 (CAKI-1): > 100 µM (inactive)
GI50 (IGROV-1): 81.1 µM (inactive)
GI50 (SF-268): > 100 µM (inactive)
GI50 (OVCAR-3): > 100 µM (inactive)
GI50 (OVCAR-4): > 100 µM (inactive)
GI50 (NCI-H23): > 100 µM (inactive)
GI50 (HCT-116): 79.6 µM (inactive)
GI50 (NCI-H460): > 100 µM (inactive)
GI50 (PC-3): > 100 µM (inactive)
GI50 (DU-145): > 100 µM (inactive)
GI50 (UO-31): > 100 µM (inactive)
GI50 (U-251): > 100 µM (inactive)
GI50 (NCI-H522): 57.7 µM (inactive)
GI50 (Hs-578T): > 100 µM (inactive)
GI50 (SK-MEL-2): > 100 µM (inactive)
GI50 (EKVX): > 100 µM (inactive)
GI50 (TK-10): > 100 µM (inactive)
GI50 (MDA-MB-435): 27 µM (inactive)
GI50 (SF-295): 81.1 µM (inactive)
GI50 (CCRF-CEM): > 100 µM (inactive)
GI50 (UACC-257): 49.8 µM (inactive)
GI50 (HL-60): 58.7 µM (inactive)
GI50 (A498): > 100 µM (inactive)
GI50 (SK-MEL-28): > 100 µM (inactive)
GI50 (HOP-92): 14.2 µM (inactive)
GI50 (SR): 31.6 µM (inactive)
GI50 (A549): > 100 µM (inactive)
GI50 (MCF7): 49.2 µM (inactive)
GI50 (SN12C): > 100 µM (inactive)
GI50 (KM12): 62.1 µM (inactive)
GI50 (LOX IMVI): > 100 µM (inactive)
GI50 (M14): > 100 µM (inactive)
GI50 (K562): 48.4 µM (inactive)
GI50 (OVCAR-8): > 100 µM (inactive)
GI50 (UACC-62): 87.5 µM (inactive)
GI50 (786-0): > 100 µM (inactive)
GI50 (HCC 2998): > 100 µM (inactive)
GI50 (MDA-N): 19 µM (inactive)
GI50 (SK-MEL-5): 55 µM (inactive)
GI50 (BT-549): 98.6 µM (inactive)
GI50 (COLO 205): > 100 µM (inactive)
GI50 (NCI-H226): > 100 µM (inactive)
GI50 (RPMI-8226): 91 µM (inactive)
GI50 (ACHN): > 100 µM (inactive)
GI50 (HCT-15): 55.5 µM
GI50 (MOLT-4): > 100 µM (inactive)
GI50 (SNB-19): > 100 µM (inactive)
GI50 (MDA-MB-231): > 100 µM (inactive)
GI50 (SK-OV-3): > 100 µM (inactive)
GI50 (HT-29): > 100 µM (inactive)
GI50 (SW-620): 76 µM (inactive)
GI50 (OVCAR-5): > 100 µM (inactive)
